Reference: patent US20220168252A1, “RETINOID DERIVATIVES WITH ANTITUMOR ACTIVITY” (BIOGEM S.C. A R.L., priority 2016, published 2022)
Read-outs that look alike come from different tables or passages of the source.

How the values were obtained:
[1] = tested on: parent A2780 ovarian cancer cell line; assay: Anti-proliferative activity, A2780, 24 h + 48 h recovery, SRB; assay type: cell-based; conditions: Homo sapiens, 24 h exposure, read-out: IC50 ± SD A2780
Procedure: (§1) Tumor cells were exposed for 24 h to new atypical retinoids (AR) and the anti-proliferative activity assessed upon 48 h recovery in drug-free medium with the SRB assay. RI=Resistance Index (ratio between the IC50 values of resistant and sensitive cells).

[2] = tested on: parent A2780 ovarian carcinoma; assay: Anti-proliferative activity, A2780, 72 h, SRB; assay type: cell-based, human
Procedure: (§2) The anti-proliferative activity of the POLA1/HDAC dual inhibitors MIR002 and GEM144 was assessed on various cell lines from solid and hematological cancers.
(§3) Human tumor cells were treated with POLA1/HDAC dual inhibitors and cell survival assessed upon 72 h with the SRB assay. HDAC=Histone Deacetylase. POLA1=DNA Polymerase Alpha 1. RI=Resistance Index.

[3] = tested on: multidrug-resistant A2780-Dx ovarian carcinoma; assay: Anti-proliferative activity, A2780-Dx, 72 h, SRB; assay type: cell-based, human; conditions: for RI (Resistance Index) / IC50: 72 h; for IC50: SRB, read-out: A2780-Dx IC50 ± SD
Procedure: as §2, §3

MDA-MB231 (Breast) = assay: Anti-proliferative activity, MDA-MB231, 72 h, SRB; assay type: cell-based; conditions: Homo sapiens, MDA-MB-231, read-out: MDA-MB231 (Breast) IC50 ± SD
Procedure: as §2
(§4) HDAC=Histone Deacetylase. POLA1=DNA Polymerase Alpha 1. N.e.=not evaluated.

[4] = tested on: H460-R9A retinoid resistant cells; assay: H460-R9A lung cancer subcutaneous xenograft in mice; conditions: Cisplatin 4 mg/kg IV q7dx4w, MIR002 50 mg/kg OS bid, qdx5/wx4w
Procedure: CD-1 nude and NOG mice, females, 4-5 weeks-old, were housed under specific-pathogen-free conditions in individually ventilated cages.
Cells were cultured in appropriated media and expanded in a 37° C. incubator with saturated humidity and an atmosphere of 95% air and 5% CO2, and were sub-cultured every 2-3 days. Before the injection in mice, cells were checked with MycoAlert® Mycoplasma Detection Kit (Lonza) to exclude mycoplasma contamination, counted by trypan blue dye exclusion, evaluated for cell viability (>95%).
H-460-R9A lung cancer cells were suspended at a concentration of 25×10^6/ml. 5×10^6 tumor cells were suspended in 0.2 ml of M199, then inoculated subcutaneously on the right flank of each animal.
MIR002 was dissolved to a concentration of 3.3 mg/mL in 10% DMSO, 5% ethanol, 20% Kolliphor® EL and 65% Na2CO3 10 mM pH 11 and administered by gavage; Cisplatin was dissolved to a concentration of 0.8 mg/mL in sterile saline solution and administered intravenously.
Four days after inoculation, tumor masses of H460-R9A were measured in length and width using a Mitutoyo caliper, mice were sorted basing on tumor volume (TV) and treatments were started. Tumor volume was calculated as follows: TV (mm3)=(Length (mm)×Width (mm)2)/2. Tumor growth was followed by biweekly measurements. Tumor Growth Inhibition (TGI) for each group was calculated as follows: TGI (%)=100−(mean TVtreated/mean TVcontrol×100). Mice were weighed twice a week.

[5] = tested on: NB4 (pro-myelocytic. leukemia); assay: Anti-proliferative activity, NB4, 24 h + 48 h recovery, MTT; assay type: cell-based; conditions: Homo sapiens, 24 h exposure
Procedure: (§5) Tumor cells were exposed for 24 h to new atypical retinoids (AR) and the anti-proliferative activity assessed upon 48 h recovery in drug-free medium with the MTT assay.

MM487-Luc mesothelioma [6] = assay: Anti-proliferative activity, MM487-Luc, 72 h, SRB; assay type: cell-based, Human; conditions: for IC50: read-out: MM487-Luc IC50 ± SD
Procedure: as §2, §4

B16-Luc (Melanoma) = assay: Anti-proliferative activity, B16-Luc, 72 h, SRB; assay type: cell-based, mouse; conditions: for IC50: read-out: B16-Luc (Melanoma) IC50 ± SD
Procedure: as §2, §4

[7] = tested on: Human Adarotene-resistant NCI-H460 (R9A) NSCLC; assay: Anti-proliferative activity, H460-R9A, 24 h + 48 h recovery, SRB; assay type: cell-based; conditions: 24 h exposure, read-out: IC50 ± SD H460-R9A
Procedure: as §1

[8] = tested on: MDA-MB436 breast carcinoma; assay: Anti-proliferative activity, MDA-MB436, 72 h, SRB; assay type: cell-based; conditions: Homo sapiens, MDA-MB-436, read-out: DA-MB436 (Breast) IC50 ± SD
Procedure: as §2, §4

[9] = tested on: A2780-Dx multidrug-resistant ovarian cancer cell line; assay: Anti-proliferative activity, A2780-Dx, 24 h + 48 h recovery, SRB; assay type: cell-based, Human
Procedure: as §1
As described by Zuco V. et al in Neoplasia, 2005 July; 7(7):667-77, H460-R9A are about 70 fold resistant with respect to parental H460 to Adarotene. […] Ovarian cancer A2780 and its clone derivative A2780DX (Doxorubicin resistant) which overexpress P-glycoprotein (PGP), were used to evaluate the possibility of these new molecules to be absorbed at intestinal level. In fact, the overexpression of PGP, as well known, drastically reduces the possibility, after oral administration, of absorption of several chemotherapeutic agents (i.e. Paclitaxel, doxorubicin etc.). Since the IC50 of the tested compounds in A2780 and A2780DX, have similar values we conclude that they are not PGP substrates and they could be administrated to the patients via oral route.

[10] = tested on: ST1926-resistant H460 (H460-R9A) NSCLC; assay: Anti-proliferative activity, H460-R9A, 72 h, SRB; assay type: cell-based, human; conditions: for RI (Resistance Index): H460-R9A vs NCI-H460; for IC50: SRB, read-out: H460-R9A IC50 ± SD
Procedure: as §2, §3

NB4 (leukemia) = assay: Cell survival, NB4, 72 h, MTT; assay type: cell-based, Human; conditions: read-out: NB4 (leukemia) IC50 ± SD
Procedure: as §2
(§6) Tumor cells were treated with POLA1/HDAC dual inhibitors and cell survival assessed upon 72 h with the MTT assay. HDAC=Histone Deacetylase. POLA1=DNA Polymerase Alpha 1.

MM473-Luc mesothelioma = assay: Anti-proliferative activity, MM473-Luc, 72 h, SRB; assay type: cell-based, Human; conditions: for IC50: read-out: MM473-Luc IC50 ± SD
Procedure: as §2, §4

U87MG-Luc glioma = assay: Anti-proliferative activity, U87MG-Luc, 72 h, SRB; assay type: cell-based; conditions: Homo sapiens, read-out: 87MG-Luc (Glioma) IC50 ± SD
Procedure: as §2, §4

THP-1 (leukemia) = assay: Cell survival, THP-1, 72 h, MTT; assay type: cell-based, Human
Procedure: as §2, §6

U2932 (lymphoma) = assay: Cell survival, U2932, 72 h, MTT; assay type: cell-based, Human
Procedure: as §2, §6

MM432-Luc mesothelioma = assay: Anti-proliferative activity, MM432-Luc, 72 h, SRB; assay type: cell-based; conditions: Homo sapiens, read-out: MM432-Luc IC50 ± SD
Procedure: as §2, §4

MM487-Luc mesothelioma [11] = assay: Anti-proliferative activity, MM487-Luc, 24 h + 48 h recovery, SRB; assay type: cell-based; conditions: Homo sapiens, 24 h exposure, read-out: IC50 ± SD MM487-Luc
Procedure: as §1

[12] = tested on: human Pleural Epithelioid Mesothelioma MM473; assay: Orthotopic mesothelioma model MM473 xenografted on nude mice; assay type: in vivo; conditions: 50 mg/kg OS, bid, qdx5/wx4w
Procedure: (MM473-Luc) were re-suspended at the concentration of 1×10^6 cells/40 μl M199 medium., then orthotopically injected intrapeulically with infusion of […] (with Hamilton syringe).
Tumor growth was followed by biweekly measurements. […] Mice were weighed twice a week. […] Tumor growth was further followed by weekly BLI measurements. TGI was calculated as for the H460 trial.

Z138 (lymphoma) = assay: Cell survival, Z138, 72 h, MTT; assay type: cell-based, Human
Procedure: as §2, §6

U87MG glioblastoma cells = assay: Anti-proliferative activity, U87MG, 24 h + 48 h recovery, SRB; assay type: cell-based; conditions: Homo sapiens, U-87 MG, 24 h exposure, read-out: IC50 ± SD U87MG
Procedure: as §1

[13] = tested on: Z-138 mantle cell lymphoma; assay: Anti-proliferative activity, Z-138, 24 h + 48 h recovery, MTT; assay type: cell-based; conditions: Homo sapiens, 24 h exposure
Procedure: as §5

Human NCI-H460 NSCLC [14] = assay: Anti-proliferative activity, NCI-H460, 24 h exposure + 48 h recovery, SRB; assay type: cell-based; conditions: 48 h recovery in drug-free medium, SRB (Table 1)
Procedure: Tumor cells were exposed for 24 h to new atypical retinoids (AR) and the anti-proliferative activity assessed upon 48 h recovery in drug-free medium with the SRB assay.

Human NCI-H460 NSCLC [15] = assay: Anti-proliferative activity, NCI-H460, 72 h, SRB; assay type: cell-based
Procedure: as §2, §3

DU145 prostate carcinoma = conditions: 72 h; SRB
Procedure: (§7) To this end, cells in the logarithmic phase of growth were seeded in 96-wells plastic plates, incubated overnight in culture medium, and treated for 72 h with scalar concentrations (2-fold dilution series) of the compounds.
(§8) Tumor cells were exposed to the inhibitors, and the anti-proliferative activity assessed upon 72 h with the SRB assay. N.e.=not evaluated.

SW620 colon carcinoma = conditions: 72 h; SRB
Procedure: as §7, §8

HT29 colon carcinoma = conditions: 72 h; SRB
Procedure: as §7, §8

O=C(O)/C=C/c1ccc(-c2ccc(OCC(=O)NO)c(C34CC5CC(CC(C5)C3)C4)c2)cc1 [Compound 8, 3-(3′-Adamantan-1-yl-4′-hydroxycarbamoylmethoxybiphenyl-4-yl)-acrylic acid]
IC50 [1]: 0.6 ± 0.01 µM | IC50 ([2]; Homo sapiens, A2780, read-out: A2780 IC50 ± SD): 0.6 ± 0.01 µM | RI (Resistance Index) ([3]; A2780-Dx vs A2780): 0.7 | IC50 ([3]; Homo sapiens, A2780/DX): 0.41 ± 0.005 µM | IC50 (MDA-MB231 (Breast)): 1.9 ± 0.2 µM | BWL Day + 35 ([4]; Adarotene 15 mg/Kg OS q7dx5x4w): 0% | TGI Day + 35 ([4]; combination same doses): 38% | IC50 [5]: 0.18 ± 0.04 µM | IC50 (MM487-Luc mesothelioma [6]; Homo sapiens): 0.22 ± 0.02 µM | IC50 (B16-Luc (Melanoma); Mus musculus): 0.27 ± 0.02 µM | IC50 [7]: 2.8 ± 0.3 µM | IC50 [8]: 0.64 ± 0.03 µM | RI (Resistance Index, ratio between the IC50 values of resistant and sensitive cells) ([9]; A2780-Dx vs A2780, 24 h exposure): 0.7 | IC50 ([9]; Homo sapiens, A2780/DX, 24 h exposure, SRB, read-out: IC50 ± SD A2780-Dx): 0.41 ± 0.005 µM | RI (Resistance Index) [10]: 11.2 | IC50 ([10]; Homo sapiens, H460-R9A): 2.8 ± 0.05 µM | IC50 (NB4 (leukemia); Homo sapiens): 0.18 ± 0.04 µM | IC50 (MM473-Luc mesothelioma; Homo sapiens): 1.2 ± 0.06 µM | IC50 (U87MG-Luc glioma): 1.1 ± 0.3 µM | IC50 (THP-1 (leukemia); Homo sapiens, THP-1, read-out: THP-1 (leukemia) IC50 ± SD): 0.42 ± 0.02 µM | IC50 (U2932 (lymphoma); Homo sapiens, U2932, read-out: U2932 (lymphoma) IC50 ± SD): 0.52 ± 0.03 µM | IC50 (MM432-Luc mesothelioma): 1.5 ± 0.08 µM | IC50 (MM487-Luc mesothelioma [11]): 4.5 ± 0.3 µM | BWL Day + 35 [12]: 0% | TGI Day + 35 [12]: 77% | IC50 (Z138 (lymphoma); Homo sapiens, Z-138, read-out: Z138 (lymphoma) IC50 ± SD): 0.038 ± 0.003 µM | IC50 (U87MG glioblastoma cells): 1.1 ± 0.3 µM | IC50 [13]: 0.074 ± 0.02 µM | IC50 (Human NCI-H460 NSCLC [14]): ≤ 0.5 µM | IC50 (Human NCI-H460 NSCLC [15]; Homo sapiens, NCI-H460, 72 h, SRB (Table 8), read-out: NCI-H460 IC50 ± SD): 0.25 ± 0.006 µM | IC50 (Human NCI-H460 NSCLC [15]; Homo sapiens, NCI-H460, chronically exposed 72 h, SRB (Table 2), read-out: IC50 ± SD): < 0.5 µM

CC(Oc1ccc(-c2ccc(/C=C/C(=O)O)cc2)cc1C12CC3CC(CC(C3)C1)C2)C(=O)NO (stereo not shown) [GEM144]
cytotoxicity, DU145 prostate carcinoma (DU145 prostate carcinoma): very effective | cytotoxicity, SW620 colon carcinoma (SW620 colon carcinoma): very effective | cytotoxicity, HT29 colon carcinoma (HT29 colon carcinoma): very effective | IC50 ([2]; read-out: A2780 IC50 ± SD): 0.95 ± 0.04 µM | IC50 [3]: 0.66 ± 0.008 µM | RI (Resistance Index) ([3]; A2780-Dx vs A2780): 0.7 | substrate for the P-gp drug efflux pump ([3]; indicated by low resistance index, A2780-Dx vs A2780): very poor substrate | cytotoxicity, MM487 mesothelioma (MM487-Luc mesothelioma [6]): very effective | IC50 (MM487-Luc mesothelioma [6]): 0.73 ± 0.2 µM | cytotoxicity, B16 melanoma (B16-Luc (Melanoma)): very effective | IC50 (B16-Luc (Melanoma)): 0.37 ± 0.03 µM | RI (Resistance Index) [10]: 8.5 | IC50 [10]: 2.2 ± 0.09 µM | IC50 (NB4 (leukemia)): 0.23 ± 0.03 µM | cytotoxicity, MM473 mesothelioma (MM473-Luc mesothelioma): very effective | IC50 (MM473-Luc mesothelioma): 1.4 ± 0.2 µM | cytotoxicity, THP-1 leukemia (THP-1 (leukemia)): very effective | IC50 (THP-1 (leukemia); read-out: THP-1 (leukemia) IC50 ± SD): 0.52 ± 0.02 µM | cytotoxicity, U2932 lymphoma (U2932 (lymphoma)): very effective | IC50 (U2932 (lymphoma); read-out: U2932 (lymphoma) IC50 ± SD): 0.77 ± 0.1 µM | cytotoxicity, Z138 lymphoma (Z138 (lymphoma)): very effective | IC50 (Z138 (lymphoma); read-out: Z138 (lymphoma) IC50 ± SD): 0.16 ± 0.03 µM | IC50 (Human NCI-H460 NSCLC [15]; 72 h, SRB (Table 8), read-out: NCI-H460 IC50 ± SD): 0.26 ± 0.009 µM | cytotoxic activity / IC50 range on NCI-H460 cells (Human NCI-H460 NSCLC [15]; 72 h, SRB/MTT assay): nano molar range
